Series [1] relates to keratinocyte culture (detachment of corneocytes). Put plainly: Desquamating test, detachment of corneocytes in vitro. Type of series: cell-based. An excerpt:
Variation coefficient CV is obtained as follows: [formula]
Actually, the therapeutic applications incidentally involve cosmetic applications.

The nature of the next series: in vitro. To be noted: keratinocyte culture.
Series [2] relates to macrophages (Interleukin-1 release). Briefly: IL-1 released by macrophages (Elisa sandwich test on culture supernatant). The series is classed as cell-based. Particulars: 25 μg/ml. From the text:
It is known, however, that several factors such as cytokines and growth factors play important roles in the process of wound healing. These factors include the epidermal growth factor (EGF), the fibroblastic growth factor (FGF), the platelet-derived growth factor (PDGF), and the beta transforming growth factor (beta-TGF). In addition to these factors, cytokines such as interleukin-l (IL-1), the tumor necrosis factor (TNF), and interleukin-6 (IL-6) also play important roles in the process of wound healing. These factors act by different methods, in combination with other materials, to induce proliferation of dermal and epidermal elements such as fibroblasts. […] Actually, IL-1 affects the differentiation, growth, and activity of many cellular types in the organism. Within the immune system, IL-1 acts as a second signal that is necessary to activate the IL-2 circuit by the activated T lymphocytes. It also potentiates the action of other cytokines. It contributes to the differentiation of B lymphocytes and to their production of immunoglobulins. It modifies vascular permeability by the release of mediators by the endothelial cells and induces the appearance at their surface of a factor that has a procoagulating activity. Owing to its proliferative effect on the fibroblasts, it intervenes in the repair phase.
To show the effect of activating macrophages by sophorolipids, an Elisa sandwich test was carried out on the supernatant of a culture medium that contained macrophages. […] A negative test was also used.

One may read the viability as the share of living cells, or the viability signal relative to a control. Low readings indicate a greater loss of cells, high ones better survival. In series [1] (10^-3M, p less than 0.001), `CC(O)C(=O)O` (centres unmarked) [Lactic acid, lactic acid, reference compound] returned a T60-T0 mean difference of 2500 corneocytes/ml. In series [1] (Keratinocyte, 10^-3M, read-out: %/TN, proportion of detached corneocytes relative to the negative test), the activity at 1000 µM was determined as 214%. Also, the EC (2-fold corneocyte release) in series [1] (Keratinocyte, read-out: T200 (concentration which causes a release of corneocytes twice that observed with the negative test)) is around 1000 µM. In “in vitro”, this molecule registered a viability at 1000 µM of 99.5%.

With “Lipopolysaccharides [reference compound]”, the “Concentrations IL-1 released by macrophages” value in series [2] is 421.61 pg/mL.
